Assay results from ChEMBL document CHEMBL5252541, “Repurposing antipsychotic drugs into antifungal agents: Synergistic combinations of azoles and bromperidol derivatives in the treatment of various fungal infections” (Eur J Med Chem, 2017).
The source made the active and inactive calls. The rule behind the calls is not given here.

How the values were obtained:
Candida albicans [1] = assay: Fungicidal activity against Candida albicans ATCC 64124 assessed as reduction in colony forming units at 2 to 8 times MIC incubated after 6 hrs in presence of posaconazole by time kill assay; format: functional, organism-based
Candida albicans [2] = assay: Synergistic antifungal activity against Candida albicans ATCC 64124 assessed as compound MIC measured after 48 hrs in presence of fluconazole by checkboard based microplate reader analysis; format: functional
J774.A1 [3] = assay: Cytotoxicity against mouse J774.A1 cells assessed as cell survival at 8 microg/ml by XTT assay; format: toxicity, cell-based; conditions: j774.a1, dose 8 µg/ml
J774.A1 [4] = assay: Cytotoxicity against mouse J774.A1 cells assessed as cell survival up to 4 microg/ml by XTT assay; format: toxicity, cell-based; conditions: dose < 4 µg/ml
Candida albicans [5] = assay: Synergistic antifungal activity against Candida albicans ATCC 64124 assessed as compound MIC measured after 48 hrs in presence of ketoconazole by checkboard based microplate reader analysis; format: functional
Candida albicans [6] = assay: Partial synergistic antifungal activity against Candida albicans ATCC 10231 assessed as fractional inhibitory concentration index measured for 72 hrs in presence of itraconazole; format: functional
Candida albicans [7] = assay: Partial synergistic antifungal activity against Candida albicans ATCC MYA-2310 assessed as fractional inhibitory concentration index measured for 72 hrs in presence of voriconazole; format: functional
Candida albicans [8] = assay: Partial synergistic antifungal activity against Candida albicans ATCC 10231 assessed as fractional inhibitory concentration index measured for 72 hrs in presence of ketoconazole; format: functional
Candida albicans [9] = assay: Partial synergistic antifungal activity against Candida albicans ATCC MYA-2310 assessed as fractional inhibitory concentration index measured for 72 hrs in presence of posaconazole; format: functional
J774.A1 [10] = assay: Cytotoxicity against mouse J774.A1 cells assessed as cell survival at 16 microg/ml in presence of voriconazole by XTT assay; format: toxicity, cell-based; conditions: dose 16 µg/ml
Candida albicans [11] = assay: Synergistic antifungal activity against Candida albicans ATCC 10231 assessed as compound MIC measured after 48 hrs in presence of fluconazole by checkboard based microplate reader analysis; format: functional
Candida albicans [12] = assay: Additive antifungal activity against Candida albicans MYA-1003 assessed as fractional inhibitory concentration index measured for 72 hrs in presence of voriconazole
Candida albicans [13] = assay: Partial synergistic antifungal activity against Candida albicans ATCC 64124 assessed as fractional inhibitory concentration index measured for 72 hrs in presence of itraconazole; format: functional
Candida albicans [14] = assay: Synergistic antifungal activity against Candida albicans ATCC 64124 assessed as fractional inhibitory concentration index measured for 72 hrs in presence of voriconazole; format: functional
Candida albicans [15] = assay: Antifungal activity against Candida albicans ATCC MYA-2310 measured after 48 hrs by broth microdilution analysis; format: functional
HEK293 = assay: Cytotoxicity against HEK293 cells assessed as cell survival up to 4 microg/ml by XTT assay; format: toxicity, cell-based; conditions: human, dose < 4 µg/ml
Candida albicans [16] = assay: Additive antifungal activity against Candida albicans ATCC 10231 assessed as fractional inhibitory concentration index measured for 72 hrs in presence of fluconazole; format: functional
Candida albicans [17] = assay: Synergistic antifungal activity against Candida albicans ATCC 64124 assessed as compound MIC measured after 48 hrs in presence of voriconazole by checkboard based microplate reader analysis; format: functional
Candida albicans [18] = assay: Synergistic antifungal activity against Candida albicans ATCC 90819 assessed as fractional inhibitory concentration index measured for 72 hrs in presence of posaconazole; format: functional
Aspergillus terreus = assay: Antifungal activity against Aspergillus terreus ATCC MYA-3633 measured after 48 hrs by broth microdilution analysis; format: functional
[19] = Cytotoxicity against human HEK293 cells assessed as cell survival at 1 to 16 microg/ml in presence of posaconazole by XTT assay; format: toxicity, cell-based; conditions: at 1 to 16 µg/mL, dose 1-16 µg/ml
Candida albicans [20] = assay: Additive antifungal activity against Candida albicans ATCC MYA-1237 assessed as fractional inhibitory concentration index measured for 72 hrs in presence of voriconazole; format: functional
[21] = Cytotoxicity against HEK293 cells assessed as cell survival by XTT assay; format: toxicity, cell-based; conditions: human, read-out: Activity
Nakaseomyces glabratus [22] = assay: Antifungal activity against Candida glabrata ATCC 2001 measured after 48 hrs by broth microdilution analysis; format: functional
BEAS-2B [23] = assay: Cytotoxicity against human BEAS-2B cells assessed as cell survival at 8 microg/ml by XTT assay; format: toxicity, cell-based; conditions: dose 8 µg/ml
[24] = Cytotoxicity against human BEAS-2B cells assessed as cell survival by XTT assay; format: toxicity, cell-based; conditions: read-out: Activity
Candida albicans [25] = assay: Additive antifungal activity against Candida albicans ATCC MYA-2876 assessed as fractional inhibitory concentration index measured for 72 hrs in presence of posaconazole; format: functional
[26] = Cytotoxicity against mouse J774.A1 cells assessed as cell survival at 16 microg/ml by XTT assay; format: toxicity, cell-based; conditions: at 16 µg/mL, read-out: Activity
Candida albicans [27] = assay: Additive antifungal activity against Candida albicans ATCC 64124 assessed as fractional inhibitory concentration index measured for 72 hrs in presence of fluconazole; format: functional
Nakaseomyces glabratus [28] = assay: Synergistic antifungal activity against Candida glabrata ATCC 2001 assessed as fractional inhibitory concentration index measured for 72 hrs in presence of posaconazole; format: functional
Candida albicans [29] = assay: Fungicidal activity against Candida albicans ATCC 64124 assessed as reduction in colony forming units at 2 to 8 times MIC incubated after 6 hrs by time kill assay; format: functional, organism-based
Candida albicans [30] = assay: Partial synergistic antifungal activity against Candida albicans ATCC MYA-1003 assessed as fractional inhibitory concentration index measured for 72 hrs in presence of voriconazole; format: functional
Candida albicans [31] = assay: Synergistic antifungal activity against Candida albicans ATCC 10231 assessed as compound MIC measured after 48 hrs in presence of posaconazole by checkboard based microplate reader analysis; format: functional
Candida albicans [32] = assay: Antifungal activity against Candida albicans ATCC 10231 measured after 48 hrs by broth microdilution analysis; format: functional
Nakaseomyces glabratus [33] = assay: Synergistic antifungal activity against Candida glabrata ATCC 2001 assessed as fractional inhibitory concentration index measured for 72 hrs in presence of voriconazole; format: functional
[34] = Cytotoxicity against mouse J774.A1 cells assessed as cell survival by XTT assay; format: toxicity, cell-based; conditions: read-out: Activity
BEAS-2B [35] = assay: Cytotoxicity against human BEAS-2B cells assessed as cell survival at 64 microg/ml by XTT assay; format: toxicity, cell-based; conditions: dose 64 µg/ml
Nakaseomyces glabratus [36] = assay: Additive antifungal activity against Candida glabrata ATCC 2001 assessed as fractional inhibitory concentration index measured for 72 hrs in presence of posaconazole; format: functional
Candida albicans [37] = assay: Partial synergistic antifungal activity against Candida albicans ATCC 64124 assessed as fractional inhibitory concentration index measured for 72 hrs in presence of ketoconazole; format: functional
Candida albicans [38] = assay: Additive antifungal activity against Candida albicans ATCC MYA-2876 assessed as fractional inhibitory concentration index measured for 72 hrs in presence of voriconazole; format: functional
Candida albicans [39] = assay: Synergistic antifungal activity against Candida albicans ATCC 10231 assessed as compound MIC measured after 48 hrs in presence of itraconazole by checkboard based microplate reader analysis; format: functional
Candida albicans [40] = assay: Synergistic antifungal activity against Candida albicans ATCC 64124 assessed as fractional inhibitory concentration index measured for 72 hrs in presence of posaconazole; format: functional
Nakaseomyces glabratus [41] = assay: Additive antifungal activity against Candida glabrata ATCC 2001 assessed as fractional inhibitory concentration index measured for 72 hrs in presence of voriconazole; format: functional

MIC (Candida albicans [2]): 64 mg/L
MIC (Candida albicans [5]): 64 mg/L
MIC (Candida albicans [11]): 64 mg/L
MIC (Candida albicans [15]): > 128 mg/L
MIC (Candida albicans [17]): 8 mg/L
MIC (Aspergillus terreus): > 128 mg/L
MIC (Nakaseomyces glabratus [22]): > 128 mg/L
MIC (Candida albicans [31]): 64 mg/L
MIC (Candida albicans [32]): > 128 mg/L
MIC (Candida albicans [39]): 64 mg/L
SMILES: O=C(CCCN1CCC(O)(c2ccc(Br)cc2)CC1)c1ccc(F)cc1 [BROMPERIDOL]
Activity (Candida albicans [1]): Active
Activity (J774.A1 [3]): Non-Toxic
Activity (J774.A1 [4]): Non-Toxic
fractional inhibitory concentration index (FICI) (Candida albicans [6]): 0.75
fractional inhibitory concentration index (FICI) (Candida albicans [7]): 0.53
fractional inhibitory concentration index (FICI) (Candida albicans [8]): 0.75
fractional inhibitory concentration index (FICI) (Candida albicans [9]): 0.52
Activity (J774.A1 [10]): Non-Toxic
fractional inhibitory concentration index (FICI) (Candida albicans [12]): 0.52
fractional inhibitory concentration index (FICI) (Candida albicans [13]): 0.56
fractional inhibitory concentration index (FICI) (Candida albicans [14]): 0.19
Activity (HEK293): Non-Toxic
fractional inhibitory concentration index (FICI) (Candida albicans [16]): 1.5
fractional inhibitory concentration index (FICI) (Candida albicans [18]): 0.5
viability [19]: 80%
fractional inhibitory concentration index (FICI) (Candida albicans [20]): 2
viability [21]: > 100%
Activity (BEAS-2B [23]): Non-Toxic
viability [24]: > 100%
fractional inhibitory concentration index (FICI) (Candida albicans [25]): 2
viability at 16 microg/ml [26]: 72%
fractional inhibitory concentration index (FICI) (Candida albicans [27]): 1.5
fractional inhibitory concentration index (FICI) (Nakaseomyces glabratus [28]): 0.5
Activity (Candida albicans [29]): Active
fractional inhibitory concentration index (FICI) (Candida albicans [30]): 0.52
fractional inhibitory concentration index (FICI) (Nakaseomyces glabratus [33]): 0.51
viability [34]: > 100%
Activity (BEAS-2B [35]): Non-Toxic
fractional inhibitory concentration index (FICI) (Nakaseomyces glabratus [36]): 0.51
fractional inhibitory concentration index (FICI) (Candida albicans [37]): 0.75
fractional inhibitory concentration index (FICI) (Candida albicans [38]): 2
fractional inhibitory concentration index (FICI) (Candida albicans [40]): 0.16
fractional inhibitory concentration index (FICI) (Nakaseomyces glabratus [41]): 0.51
